Laboratory results published in patent publication US5582997A, “Lysine/leucine polypeptides, mixture sets and libraries thereof” (priority 1994, dated 1996).
Where no end group is shown, it is not given here.

Legend:
[1] = Decarboxylase-like activity: catalysed decarboxylation of oxalacetate; format: biochemical; details: for kcat × 10^3 (S^-1): values are kcat × 10^3
Experimental: Each peptide mixture was assayed at 0.2 mM in the presence of 11.4 mM of oxalacetic acid (C4 H4 O5) at pH 7.0 (dilution done in PBS--35 mM phosphate buffer--0.15M NaCl) and 22° C. The kinetics of the decarboxylation reaction were monitored by UV spectroscopy at 280 nm for 45 minutes and the initial rate "v" was calculated directly from the kinetic software included with the spectrophotometer (Hewlett Packard Diode Array Spectrophotometer 8452A).
Based upon the scanning assay studies, a series of 144 individual polypeptides was prepared and assayed as above except that the oxalacetic acid concentration was 11.5 mM. These polypeptides had the sequence of SEQ ID NO:2 with residues at positions Xaa^6 being Glu, Lys or Trp; residues at Xaa^9 being Ala, Asn or Trp; residues at Xaa^13 being Glu, Gln, Val or Trp; and residues at position Xaa^16 being Asp, Met, Gln or Arg (3×3×4×4=144).

E. coli ATCC 25922 = format: cell-based; details: for IC50 (μg/ml) against E. coli: individual polypeptides
Experimental: (§1) To initiate the exponential phase of bacterial growth prior to the assay, a sample of bacteria grown overnight (about 18 hours) at 37° C. in Mueller Hinton broth (MH-Becton Dickinson Microbiology Systems) was reinoculated and incubated at 37° C. A final concentration of […] was used in all assays, vortexed and diluted 10-fold in Yeast Media (YM) broth (Difco Laboratories, Detroit, Mich.), for an approximate final concentration of 10^5 to 5×10^5 CFU/ml. The assays were carried out in 96-well tissue culture plates (Costar, Pleasanton, Calif.), as described in Blondelle et al., Biochem., 31:12688-12694 (1992). In brief, a bacterial suspension in 2× broth was added to the polypeptides mixture sets at concentrations derived from serial two-fold dilutions varying from 1000 μg/ml to 4 μg/ml. The plates were then incubated 21 hours at 37° C. The relative percent growth of the bacteria was determined by the optical density at 620 nm (OD620) using a Titertek Multiskan Plus apparatus (Flow Laboratories, McLean, Va.). The concentration necessary to inhibit 50 percent bacterial growth (IC50) was then calculated using the software program Graphpad (ISI, San Diego, Calif.).
Studies similar to those with S. aureus were carried out using E. coli ATCC 25922. Here, results were not as dramatic, but enhancements in activity of about 2-fold were observed using the set libraries of Example 1.

[2] = tested on: Staphylococcus aureus (ATCC 29213); format: cell-based; details: for IC50 (μg/ml) against S. aureus: individual polypeptides
Experimental: The polypeptide libraries of Example 1 were assayed for activity against Staphylococcus aureus [(ATCC 29213); ATCC, 12301 Parklawn Drive, Rockville, Md.]
as §1

[3] = tested on: human erythrocytes (red blood cells; RBCs); assay: Hemolytic activity; format: cell-based; details: for HC50 (μg/ml) against Erythrocytes: red cells of human
Experimental: The hemolytic activities of the polypeptide mixture sets were determined by using human erythrocytes (red blood cells; RBCs). The cells were washed three times with phosphate-buffered saline (PBS/35 mM phosphate buffer--0.15M NaCl, pH 7.0) and resuspended in PBS. The hemolytic activity of the polypeptide sets were determined as described in Blondelle et al., Biochem. Biophys. Acta, 1202:331-336 (1993) using 96 well tissue culture plates. In brief, 100 μl of 0.5 percent RBC solution were added to an equal volume of peptides in PBS. The plates were incubated for one hour at 37° C. and the optical density (OD) of the supernatant was measured at 414 nm. The concentration in peptide necessary to lyse 50 percent RBCs (HD50) was then determined for each peptide using a sigmoidal curve fitting method (Graphpad).

Row | Substance | IC50 (μg/ml) against E. coli (E. coli ATCC 25922) [µg/mL] | IC50 (μg/ml) against S. aureus [2] [µg/mL] | HC50 (μg/ml) against Erythrocytes [3] [µg/mL] | also measured
1 | YKLLKELLAKLKWLLRKL-NH2 [YKLLKELLAKLKWLLRKL-NH2] |  |  |  | Kcat /Km (S^-1 M^-1) ([1]; Table 4): 2.66 S^-1 M^-1; Km ([1]; Table 4): 5.66 mM; kcat × 10^3 (S^-1) ([1]; Table 4): 15.08 S^-1
2 | YKLLKKLLKKLKKLLKKL-NH2 [SEQ ID NO: 9, YKLLKKLLKKLKKLLKKL-NH2, reference compound] | 9 |  |  | Kcat /Km (S^-1 M^-1) ([1]; Table 3): 0.70 S^-1 M^-1; Km ([1]; Table 3, 0.2 mM peptide, oxalacetic acid 2.8 to 22.8 mM, pH 7.0, 22° C.): 13.5 mM; kcat × 10^3 (S^-1) ([1]; Table 3): 9.5 S^-1; IC50 (E. coli ATCC 25922; ATCC 25922, 18 h): 9 µg/mL; IC50 value ([2]; ATCC 29213): 16 µg/mL; HD50 value [3]: 27 µg/mL
3 | YKLLKLLLPKLKGLLFKL-NH2 [SEQ ID NO: 3, YKLLKLLLPKLKGLLFKL] | 2.40 | 1.71 | 24.41 | 
4 | YKLLKLLLPKLKGLLIKL-NH2 [SEQ ID NO: 4, YKLLKLLLPKLKGLLIKL] | 3.61 | 2.52 | 28.41 | 
5 | YKLLKLLLPKLKGLLPKL-NH2 [SEQ ID NO: 5, YKLLKLLLPKLKGLLPKL] | 2.65 | 5.14 | > 125 | 
6 | YKLLKLLLPKLKPLLFKL-NH2 [SEQ ID NO: 6, YKLLKLLLPKLKPLLFKL] | 1.98 | 2.11 | 54.74 | 
7 | YKLLKLLLPKLKPLLIKL-NH2 [SEQ ID NO: 7, YKLLKLLLPKLKPLLIKL] | 1.87 | 2.81 | 68.90 | 
8 | YKLLKLLLPKLKPLLPKL-NH2 [SEQ ID NO: 8, YKLLKLLLPKLKPLLPKL] | 3.14 | 22.82 | > 125 | Kcat /Km (S^-1 M^-1) ([1]; Table 4): 0.53 S^-1 M^-1; Km ([1]; Table 4): 8 mM; kcat × 10^3 (S^-1) ([1]; Table 4): 4.22 S^-1
